Reference: patent US20210238201A1, “ANTIMICROBIAL COMPOUNDS AND COMPOSITIONS” (AGROFRESH INC., priority 2020, published 2021)
In brackets after ≈: the same amount, converted by molar mass.

Assays:
Alternaria alternata = test: in vitro inhibition assay for volatile antimicrobial compounds (headspace, PDA agar); assay type: cell-based; details: volatile headspace exposure
Protocol: [The procedure below names another organism; the source lists this organism under the same test.] (§1) 12-well (6.5 ml volume per well) microtiter plates are used for the in vitro inhibition assay for volatile antimicrobial compounds. A 3-ml volume of full-strength Potato Dextrose Agar (PDA) is added to each well. After cooling, 1 μL of 1×10^5 spores per ml Botrytis cinerea (ATCC #204446) spore suspension is spot pipetted to the agar in the center of the well. Whatman #1 filter disks (1.5 cm; Cat. No. 1001-0155) are placed on the underside of a polyethylene PCR plate sealing film. For determination of the minimum inhibitory concentration (MIC), test compounds are diluted in acetone, in duplicate, and 50 μli of the compound solution is added to disks at concentrations that can vary from 0.001 mg/l to 1142.9 mg/l. The acetone is permitted to evaporate for 5 minutes. The headspace around the Botrytis cinerea inoculum is then sealed inside the well by the film with the adhering disk containing the antimicrobial, anti-decay, anti-spoilage, or pathogen control agent. Plates are inverted to prevent any possibility of the chemical from flaking from the disk and falling onto the inoculated agar.

Penicillium expansum = test: as above; assay type: cell-based; details: volatile headspace exposure
Protocol: [The procedure below names another organism; the source lists this organism under the same test.] as §1

Glomerella cingulata = test: as above; assay type: cell-based; details: Colletotrichum gloeosporioides; volatile headspace exposure
[1] = system: Botrytis cinerea (ATCC #204446); test: as above; assay type: cell-based; details: Botrytis cinerea, ATCC204446, 72 h, volatile headspace exposure, 3 days at 23° C.
Protocol: as §1

Monilinia fructicola = test: as above; assay type: cell-based; details: volatile headspace exposure
Protocol: [The procedure below names another organism; the source lists this organism under the same test.] as §1

[2] = system: Botrytis cinerea (ATCC #204446); test: Grape in vivo analysis, volatile bioassay on inoculated green table grape; set-up: species or system Botrytis cinerea on green table grape
Protocol: In order to assess the in vivo activity of volatile antimicrobial compounds, a volatile bioassay is developed using green table grape. Fruit are removed from the rachis, and 16 to 20 fruit are placed inside a 1 dry pint clamshell (Produce Packaging; Product #03231004KZ) with the stem wound facing upwards. The grapes are inoculated by pipetting 20 μL of 1×10^6 spore per ml Botrytis cinerea (ATCC #204446) into the stem wound. The clamshell is placed inside a 2.55 L plastic container (Snapware; Model #1098421). A Whatman #1 filter paper (4.25 cm; Cat. No. 1001-042) is placed on a watchglass, which is then placed on top of the closed clamshell lid. For determination of the MIC, test compounds are diluted in acetone, and 400 μl of the solution is added to disks, in duplicate, in a dose dependent manner (for example 0.4 to 50 mg/liter). The acetone is permitted to evaporate for 5 minutes. The plastic containers are then closed and placed for 3 days at 21° C. Clamshells are then removed from the treatment plastic container and placed into separate larger secondary containers for a further 3 days of evaluation at 21° C. During these 3 days, fruit are evaluated daily for incidence and severity of disease and symptoms of phytotoxicity.

[3] = system: Botrytis cinerea (ATCC #204446); test: Strawberry in vivo analysis, volatile bioassay on wound-inoculated strawberry; set-up: species or system Botrytis cinerea on strawberry
Protocol: In order to assess the in vivo activity of volatile antimicrobial compounds, a volatile bioassay is developed using strawberry. Fruit (6 to 8) are placed inside a 1 lb clamshell (Packaging Direct Inc.; Product #4341699) with the calyx facing downward. The strawberry fruit are wound-inoculated by pipetting 20 μL of 1×10^6 spore per ml Botrytis cinerea (ATCC #204446) into a wound approximately 5 mm deep and 2.6 mm in width. The clamshell is placed inside a 2.55 L plastic container (Snapware; Model #1098421). A Whatman #1 filter paper (4.25 cm; Cat. No. 1001-042) is placed on a watchglass, which is then placed on top of the closed clamshell lid. For determination of the MIC, test compounds are diluted in acetone, and 400 μl of the solution is added to disks, in duplicate, in a dose dependent manner (for example 0.4 to 50 mg/liter). The acetone is permitted to evaporate for 5 minutes. The plastic containers are then closed and placed for 3 days at 21° C. Clamshells are then removed from the treatment plastic container and placed into separate larger secondary containers for a further 3 days of evaluation at 21° C. During these 3 days, fruit are evaluated daily for incidence and severity of disease and symptoms of phytotoxicity.

[4] = system: Escherichia coli (ATCC #25922); test: in vitro inhibition assay for volatile antimicrobial compounds against bacteria (LB agar); assay type: cell-based; details: volatile headspace exposure, 2 days at 23° C.
Protocol: 12-well (6.5 ml volume per well) microtiter plates are used for the in vitro inhibition assay for volatile antimicrobial compounds. A 3-ml volume of full-strength L^B Agar is added to each well. After cooling, 15 μL of Escherichia coli (ATCC #25922) adjusted to an optical density of 0.02 to 0.035, and further diluted 1/10 is pipetted to the center of the agar. The plate is tilted to distribute bacteria uniformly. Whatman #1 filter disks (1.5 cm; Cat. No. 1001-0155) are placed on the underside of a polyethylene PCR plate sealing film. […] The acetone is permitted to evaporate for 5 minutes. The headspace around the Escherichia coli inoculum is then sealed inside the well by the film with the adhering disk containing the antimicrobial, anti-decay, anti-spoilage, or pathogen control agent. Plates are inverted, placed over the treated disks and sealed to prevent any of the chemical from flaking from the disk and falling onto the inoculated agar. After 2 days of incubation at 23° C., cultures were evaluated for colony growth relative to control.

[5] = symptoms of phytotoxicity evaluated daily

EC50 (Alternaria alternata) [µg/mL] | MIC (Alternaria alternata) [µg/mL] | EC50 (Penicillium expansum) [µg/mL] | MIC (Penicillium expansum) [µg/mL] | EC50 (Glomerella cingulata) [µg/mL] | MIC (Glomerella cingulata) [µg/mL] | MIC [1] [µg/mL] | EC50 ([1]; growth relative to control) [µg/mL] | EC50 (Monilinia fructicola) [µg/mL] | MIC (Monilinia fructicola) [µg/mL] | SMILES | antimicrobial activity against Botrytis cinerea in grape in vivo analysis ([2]; stem wound inoculated, 3 days treatment at 21° C. plus 3 days evaluation) | phytotoxicity in grape in vivo analysis [2, 5] | phytotoxicity in strawberry in vivo analysis [3, 5] | antimicrobial activity against Botrytis cinerea in strawberry in vivo analysis ([3]; wound-inoculated, 3 days treatment at 21° C. plus 3 days evaluation) | antimicrobial activity against Escherichia coli (colony growth relative to control) [4]
2.3 (≈ 6.85 µM) | 8.9 (≈ 26.5 µM) | 12.2 (≈ 36.3 µM) | 71.4 (≈ 212 µM) | 9.1 (≈ 27.1 µM) | 143 (≈ 425 µM) |  |  |  |  | CC(C)(COB1OCc2ccccc21)COB1OCc2ccccc21 [Compound 2, 1,1′-((2,2-dimethylpropane-1,3-diyl)bis(oxy))bis(1,3-dihydrobenzo[c][1,2]oxaborole)] |  |  |  |  | 
< 0.6 | 8.9 (≈ 30.3 µM) | 2.5 (≈ 8.51 µM) | 8.9 (≈ 30.3 µM) | 11.1 (≈ 37.8 µM) | 143 (≈ 486 µM) | 2.2 (≈ 7.48 µM) | 0.9 (≈ 3.06 µM) | 6.8 (≈ 23.1 µM) | 35.7 (≈ 121 µM) | c1ccc2c(c1)COB2OCCOB1OCc2ccccc21 [Compound 1, 1,2-bis(benzo[c][1,2]oxaborol-1(3H)-yloxy)ethane] | good antimicrobial activity | no phytotoxicity | no phytotoxicity | good antimicrobial activity | good antimicrobial activity
